Experimental data published in patent publication EP0340171A2, “Cyclodextrin complexes of 5-aminohexahydropyrimidine compounds” (WARNER-LAMBERT COMPANY, priority 1988, dated 1989).
“Also recorded” adds a separate entry of the source.

What was measured:
[1] = solubility in deionized water; type: physicochemical
Experimental: When complexed with beta-cyclodextrin the solubility increases to about 10 mg hexetidine (contained in about 43 mg of complex) in about 10 ml of water -- without the addition of any alcohol or any surfactant. This is an increase from about 0 to about 0.1% w/v in solubility. The complex, 43 mg, was dissolved in 10 ml of deionized water at about 50°C using vortexing. The complex, assayed by UV to be a 1:1 complex of hexetidine: beta-cyclodextrin, contains 10 mg of hexetidine in the 43 mg of complex, and therefore, a 0.1% w/v solution of hexetidine was made. The solution of the 43 mg of complex in 10 ml of water was clear.

[2] = cited from earlier work

SMILES: CCCCC(CC)CN1CN(CC(CC)CCCC)CC(C)(N)C1 (centres unmarked) [hexetidine, 5-amino-1,3 bis(2-ethylhexyl)-5-methyl-hexahydropyrimidine]
- solubility in water (in words) ([1]; 10 mg hexetidine, alone or as 43 mg of complex, in 10 ml of water): virtually insoluble in water; also recorded: did not dissolve
- solubility (hexetidine in aqueous solution) ([1]; water, no ethanol and no surfactant): about 0 % w/v
- solution of hexetidine in known in the art compositions ([2]; about 9.5% v/v ethanol and about 0.7% v/v of surfactant (e.g., TWEEN 80)): ~0.1 % w/v
- solubility in ethanol ([2]; ethanol): soluble in ethanol
- solubility in water ([2]; water): practically insoluble in water
